Results published in patent publication US20080306064A1, “Benzimidazole Derivatives” (priority 2005, published 2008).

Target: T1, Human recombinant CXCR2 receptor (Homo sapiens, UniProt P25025)
T1 construct: Biosignal Packard Inc. (Kb, GTPγS assay); host or cells: CHO-K1
T1 sequence (P25025 1-360): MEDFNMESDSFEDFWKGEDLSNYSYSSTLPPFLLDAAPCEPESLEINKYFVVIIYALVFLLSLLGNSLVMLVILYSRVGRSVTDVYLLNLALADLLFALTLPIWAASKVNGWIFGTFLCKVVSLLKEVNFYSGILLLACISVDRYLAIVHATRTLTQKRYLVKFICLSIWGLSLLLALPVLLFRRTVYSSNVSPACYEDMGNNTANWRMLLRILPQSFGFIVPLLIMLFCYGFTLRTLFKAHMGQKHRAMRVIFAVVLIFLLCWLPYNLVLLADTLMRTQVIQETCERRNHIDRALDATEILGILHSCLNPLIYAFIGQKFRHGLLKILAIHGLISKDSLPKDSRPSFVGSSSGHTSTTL
Assay: Receptor Binding Assay ([125I] IL-8, Ki) or [35S]-GTPγS Binding Assay (Kb) for human CXCR2 receptor
Settings: CHO-K1 membranes expressing human CXCR2; Ki from Receptor Binding Assay, Kb from [35S]-GTPγS Binding Assay; table does not say which applies per value; compounds are trifluoroacetic acid salts
Description: [^125I] IL-8 (human recombinant) was obtained from Amersham Pharmacia Biotech., with specific activity 2000 Ci/mmol. All other chemicals were of analytical grade. Human recombinant CXCR2 receptor expressed in Chinese hamster ovary cells (CHO-K1) was purchased from Euroscreen. The Chinese hamster ovary membranes were prepared according to protocol supplied by Euroscreen. Membrane protein concentration was determined using a Bio-Rad protein assay. Assays were performed in a 96-well micro plate format according the method described in White, et al., J Biol Chem., 1998, 273, 10095). Each reaction mixture contained 0.05 mg/ml CXCR2 membrane protein in 20 mM Bis-Tris-propane, pH 8.0, containing 1.2 mM MgSO4, 0.1 mM EDTA, 25 mM NaCl and 0.03% CHAPS. In addition, compound of interest was added which had been pre-dissolved in dimethylsulphoxide (DMSO) so as to reach a final concentration of between 10 μM and 0.0005 μM (final concentration of DMSO 2% (v/v)). Binding was initiated by addition of 0.02 nM ^125I-IL-8. After 2 hours at room temperature the plate was harvested using a Brandell™ 96-well harvester onto glass fibre filter plate (GF/c) blocked with 1% polyethyleneimine+0.5% BSA and washed 3 times with 25 mM NaCl, 10 mM TrisHCl, 1 mM MgSO4, 0.5 mM EDTA, 0.03% CHAPS, pH 7.4. The filter was dried at 50° C. overnight. Backseal was then applied to the plate and 50 μl of liquid scintillation fluid added. The counts were then measured on the Packard Topcount™ scintillation counter.
[^35S]-GTPγS Binding Assay for Human CXCR2 Receptor Using SPA Technology
[^35S]-GTPγS (with specific activity 1082 Ci/mmol) and wheat germ agglutinin poly vinyl toluene scintillation proximity beads were purchased from Amersham Pharmacia Biotech. The Chinese hamster ovary cell (CHO-K1) membranes expressing human CXCR2 receptors were purchased from Biosignal Packard Inc. All other chemicals were of analytical grade. White non-binding surface 96 well Optiplate™ microplates were obtained from Packard. Recombinant human IL-8 was synthesised, cloned and expressed in Escherichia coli as described previously (Lindley I, et al., Proc. Natl. Acad. Sci., 1988, 85(23):9199).
The assay was performed in duplicate in 96 well Optiplate™ microplate in a final volume of 250 μl per well. Compounds were diluted in DMSO (0.5% final concentration) and incubated in 20 mM HEPES buffer pH 7.4 containing 10 mM MgCl2, 100 mM NaCl, 1 mM EDTA plus 100 nM IL-8, 50 VM GDP and 500 pM [^35S]GTPγS per well. SPA beads (1 mg/well final concentration) were pre-mixed with the membranes ([…] final concentration) in assay buffer: 20 mM HEPES buffer pH 7.4 containing 10 mM MgCl2, 100 mM NaCl, 1 mM EDTA. The bead membrane mixture was then added to each well, plates were sealed and incubated at room temperature for 60 minutes. After which time the plate was centrifuged and immediately read on Packard TopCount™ scintillation counter, program [^35S dpm] for 1 min/well. Data was expressed as the % response to 100 nM IL-8 minus basal.
Ki data and Kb data are determined in the aforementioned Receptor Binding and [^35S]-GTPγS Binding Assays respectively.

SMILES	Ki [nM]
O=C(O)c1cc(-c2ccoc2)cc2nc(Nc3cccc(Cl)c3Cl)[nH]c12 [Example 10]	1500
Cc1c(F)cccc1Nc1nc2cccc(C(=O)O)c2[nH]1 [Example 3]	800
O=C(O)c1cccc2nc(Nc3ccccc3-c3ccccc3)[nH]c12 [Example 5]	1200

Continued by falling Ki, values first:

Ki [nM]	SMILES
1800	Cn1ccc(-c2cc(C(=O)O)c3[nH]c(Nc4cccc(Cl)c4Cl)nc3c2)n1 [Example 12]
200	O=C(O)c1cc(F)cc2nc(Nc3cccc(Cl)c3Cl)[nH]c12 [Example 1, 2-(2,3-Dichloro-phenylamino)-6-fluoro-3H-benzoimidazole-4-carboxylic acid]
